Structures are written as SMILES. Counter-ions that a name gives are not always drawn. Like-named read-outs stand apart in the source and are kept apart here.

The source of these data is US20250059182A1, “SOS1 INHIBITORS” (Mirati Therapeutics, Inc., priority 2021, published 2025).

In assay [1] the target is T1, recombinant human SOS1 polypeptide (amino acids 560-1049) (Homo sapiens, UniProt Q07889).
T1 construct: corresponding to amino acids 560-1049, expressed in E. Coli; made in house; host or cells: E. coli
T1 sequence (Q07889 560-1049): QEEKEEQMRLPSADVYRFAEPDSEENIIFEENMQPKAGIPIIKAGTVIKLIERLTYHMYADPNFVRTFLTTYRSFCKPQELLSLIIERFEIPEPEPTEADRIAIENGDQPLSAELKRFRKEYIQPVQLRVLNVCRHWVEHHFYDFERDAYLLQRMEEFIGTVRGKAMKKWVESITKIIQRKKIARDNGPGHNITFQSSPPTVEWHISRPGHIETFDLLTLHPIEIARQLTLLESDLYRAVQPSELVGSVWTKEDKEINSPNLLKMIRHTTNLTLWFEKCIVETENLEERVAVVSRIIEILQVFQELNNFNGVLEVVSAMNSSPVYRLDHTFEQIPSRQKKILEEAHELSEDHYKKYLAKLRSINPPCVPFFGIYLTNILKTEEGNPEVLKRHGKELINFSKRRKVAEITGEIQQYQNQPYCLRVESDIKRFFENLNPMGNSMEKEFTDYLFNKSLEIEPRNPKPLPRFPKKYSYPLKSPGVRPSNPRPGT
Description: HTRF displacement assay: inhibition of labeled tracer binding to SOS1. To be noted: Table A1, Morrison equation for competitive binding. For orientation: Time-resolved FRET reads energy transfer from a long-lived donor to a nearby acceptor.

A further assay deals with pERK in MKN1 cells. Nature of the assay: pERK inhibition, In-Cell Western (LI-COR Odyssey), MKN1 cells. The format is cell-based. To be noted: Homo sapiens. Put shortly:
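IC50 was fitted from % pERK inhibition, calculated as the GAPDH-normalised pERK signal of each well divided by the vehicle mean. Signal was imaged at 700 and 800 nm after fixation, methanol permeabilisation and dual antibody staining. Before fixation, MKN1 cells had received compound for about 0.5–1 h at 37 °C, top concentration 10 µM, nine 3-fold dilutions.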

Setting [2] is: MKN-1, read-out: IC50 (nM), pERK inhibition.
Setting [3] is: MKN-1, Table B1, MKN1 or H358 cells (table does not say which), 0.5-1 hour incubation, read-out: IC50 (nM), pERK inhibition.

As usually defined, the Ki is the equilibrium dissociation constant of an inhibitor or competing ligand from its target. What is called IC50 is the concentration at which inhibition is half-maximal. Turning to `Cc1c(C#N)cccc1[C@@H](C)Nc1nnc(C)c2cc(C(F)F)c(N3CCN(C)CC3)cc12` [Example P-185, (R)-3-(1-((6-(difluoromethyl)-4-methyl-7-(4-methylpiperazin-1-yl)phthalazin-1-yl)amino)ethyl)-2-methylbenzonitrile formic acid], the Ki in assay [1] came out at 4.95 nM. Also, the IC50 with pERK in MKN1 cells (setting [2]) came out at 118 nM.

Regarding `Cc1c(C#N)cccc1[C@@H](C)Nc1nnc(C)c2cc(CF)c(N3CCN(C)CC3)cc12` [Example P-186, (R)-3-(1-((6-(fluoromethyl)-4-methyl-7-(4-methylpiperazin-1-yl)phthalazin-1-yl)amino)ethyl)-2-methylbenzonitrile], the Ki in assay [1] amounted to 1.27 nM. For the same molecule, in the assay with pERK in MKN1 cells (setting [3]), the IC50 was 181 nM.

Turning to `Cc1c(C#N)cccc1[C@@H](C)Nc1nnc(C)c2c(C)nc(N3CCOCC3)cc12` [Example P-188, (R)-3-(1-((4,5-dimethyl-7-morpholinopyrido[3,4-d]pyridazin-1-yl)amino)ethyl)-2-methylbenzonitrile], the Ki in assay [1] is 2.5 nM. In addition, the IC50 with pERK in MKN1 cells (setting [3]) amounted to 49.1 nM.

With `Cc1c(C#N)cccc1[C@@H](C)Nc1nnc(C)c2c(C)nc(N(C)[C@H]3CCN(C)C3)cc12` [Example P-190, 3-((R)-1-((4,5-dimethyl-7-(methyl((S)-1-methylpyrrolidin-3-yl)amino)pyrido[3,4-d]pyridazin-1-yl)amino)ethyl)-2-methylbenzonitrile], the Ki in assay [1] was 0.572 nM. Besides, the IC50 with pERK in MKN1 cells (setting [3]) came out at 63.6 nM.

Consider `Cc1c(C#N)cccc1[C@@H](C)Nc1nnc(C)c2c(C)nc(N3CCN(C)C(C)(C)C3)cc12` [Example P-191, (R)-3-(1-((4,5-dimethyl-7-(3,3,4-trimethylpiperazin-1-yl)pyrido[3,4-d]pyridazin-1-yl)amino)ethyl)-2-methylbenzonitrile], for which the Ki in assay [1] was determined as 0.892 nM. Besides, the IC50 with pERK in MKN1 cells (setting [3]) amounted to 26 nM.

For the molecule `Cc1c(C#N)cccc1[C@@H](C)Nc1nnc(C)c2c(C)nc(N3C[C@H]4C[C@@H]3CN4C)cc12` [Example P-192, 3-((R)-1-((4,5-dimethyl-7-((1R,4R)-5-methyl-2,5-diazabicyclo[2.2.1]heptan-2-yl)pyrido[3,4-d]pyridazin-1-yl)amino)ethyl)-2-methylbenzonitrile], in assay [1], the Ki was found to be 2.93 nM. In addition, the IC50 in the assay with pERK in MKN1 cells (setting [3]) turned out to be 104 nM.

Consider `Cc1c(C#N)cccc1[C@@H](C)Nc1nnc(C)c2cc(Cl)c(N(C)[C@H]3CCN(C)C3)cc12` [Example P-193, 3-((R)-1-((6-chloro-4-methyl-7-(methyl((S)-1-methylpyrrolidin-3-yl)amino)phthalazin-1-yl)amino)ethyl)-2-methylbenzonitrile], for which the Ki in assay [1] turned out to be 1.47 nM. The IC50 in the assay on pERK in MKN1 cells (setting [3]) amounted to 512 nM.

Regarding `Cc1c(C#N)cccc1[C@@H](C)Nc1nnc(C)c2cc(Cl)c(N(C)[C@@H]3CCN(C)C3)cc12` [Example P-194, 3-((R)-1-((6-chloro-4-methyl-7-(methyl((R)-1-methylpyrrolidin-3-yl)amino)phthalazin-1-yl)amino)ethyl)-2-methylbenzonitrile], the Ki in assay [1] stood at 5.27 nM. The IC50 with pERK in MKN1 cells (setting [3]) is 231 nM.

In the case of `Cc1c(C#N)cccc1[C@@H](C)Nc1nnc(C)c2cc(Cl)c(N(C)C)cc12` [Example P-195, (R)-3-(1-((6-chloro-7-(dimethylamino)-4-methylphthalazin-1-yl)amino)ethyl)-2-methylbenzonitrile formic acid salt], in assay [1], the Ki came to 154 nM. The IC50 in the assay on pERK in MKN1 cells (setting [2]) stood at 7130 nM.

For the molecule `Cc1c(C#N)cccc1[C@@H](C)Nc1nnc(C)c2cc(Cl)c(N(C)C[C@H]3CCCN3C)cc12` [Example P-196, 3-((R)-1-((6-chloro-4-methyl-7-(methyl(((R)-1-methylpyrrolidin-2-yl)methyl)amino)phthalazin-1-yl)amino)ethyl)-2-methylbenzonitrile formic acid salt], the Ki in assay [1] was found to be 5.98 nM. The IC50 in the assay with pERK in MKN1 cells (setting [2]) turned out to be 584 nM.

Regarding `Cc1c(C#N)cccc1[C@@H](C)Nc1nnc(C)c2cc(Cl)c(N3CCS(=O)(=O)CC3)cc12` [Example P-197, (R)-3-(1-((6-chloro-7-(1,1-dioxidothiomorpholino)-4-methylphthalazin-1-yl)amino)ethyl)-2-methylbenzonitrile], the inhibition constant (Ki) in assay [1] stood at 8.97 nM. For the same molecule, the IC50 in the assay on pERK in MKN1 cells (setting [3]) is 204 nM.

Regarding `Cc1c(C#N)cccc1[C@@H](C)Nc1nnc(C)c2cc(Cl)c(N3CCC34CN(C)C4)cc12` [Example P-198, (R)-3-(1-((6-chloro-4-methyl-7-(6-methyl-1,6-diazaspiro[3.3]heptan-1-yl)phthalazin-1-yl)amino)ethyl)-2-methylbenzonitrile], the Ki in assay [1] came to 1.1 nM. In the assay with pERK in MKN1 cells (setting [3]), the IC50 is 182 nM.

Regarding `Cc1nnc(N[C@H](C)c2cccc(C(C)(F)F)c2F)c2cc(N(C)[C@@H]3CCN(C)C3)ncc12` [Example P-199, N1-((R)-1-(3-(1,1-difluoroethyl)-2-fluorophenyl)ethyl)-N7,4-dimethyl-N7-((R)-1-methylpyrrolidin-3-yl)pyrido[3,4-d]pyridazine-1,7-diamine], the Ki in assay [1] worked out at 0.321 nM. Further, the IC50 with pERK in MKN1 cells (setting [3]) came out at 59.1 nM.

Consider `Cc1nnc(N[C@H](C)c2cccc(C(C)(F)F)c2F)c2cc(N(C)[C@H]3CCN(C)C3)ncc12` [Example P-200, N1-((R)-1-(3-(1,1-difluoroethyl)-2-fluorophenyl)ethyl)-N7,4-dimethyl-N7-((S)-1-methylpyrrolidin-3-yl)pyrido[3,4-d]pyridazine-1,7-diamine], for which the Ki in assay [1] was 0.517 nM. In addition, the IC50 in the assay on pERK in MKN1 cells (setting [3]) stood at 6.77 nM.

Turning to `Cc1c(C#N)cccc1[C@@H](C)Nc1nnc(C)c2cnc(N3CCOCC34CN(C)C4)cc12` [Example P-211, (R)-2-methyl-3-(1-((4-methyl-7-(2-methyl-8-oxa-2,5-diazaspiro[3.5]nonan-5-yl)pyrido[3,4-d]pyridazin-1-yl)amino)ethyl)benzonitrile], the inhibition constant (Ki) in assay [1] turned out to be 13.4 nM. In addition, in the assay with pERK in MKN1 cells (setting [3]), the IC50 stood at 503 nM.

Take `Cc1ccccc1[C@@H](C)Nc1nnc(C)c2cnc(N3CCOCC3)cc12` [Example P-212, (R)-4-methyl-7-morpholino-N-(1-(o-tolyl)ethyl)pyrido[3,4-d]pyridazin-1-amine]: the Ki in assay [1] came to 54.8 nM. Also, in the assay with pERK in MKN1 cells (setting [3]), the IC50 is 894 nM.

In the case of `Cc1c(Br)cccc1[C@@H](C)Nc1nnc(C)c2cc(F)c(N3CCC34CN(C)C4)cc12` [Example P-214, (R)-N-(1-(3-bromo-2-methylphenyl)ethyl)-6-fluoro-4-methyl-7-(6-methyl-1,6-diazaspiro[3.3]heptan-1-yl)phthalazin-1-amine], the Ki in assay [1] was determined as 0.262 nM. The IC50 with pERK in MKN1 cells (setting [3]) is 156 nM.

Regarding `CC(=O)N1CC2(CCN2c2cc3c(N[C@H](C)c4cccc(C#N)c4C)nnc(C)c3cn2)C1` [Example P-215, (R)-3-(1-((7-(6-acetyl-1,6-diazaspiro[3.3]heptan-1-yl)-4-methylpyrido[3,4-d]pyridazin-1-yl)amino)ethyl)-2-methylbenzonitrile], the Ki in assay [1] amounted to 2.23 nM. Further, the IC50 in the assay on pERK in MKN1 cells (setting [3]) worked out at 38.7 nM.

For the molecule `CC(=O)N1CC2(CCN2c2cc3c(N[C@H](C)c4cccc(C#N)c4C)nnc(C)c3cc2F)C1` [Example P-216, (R)-3-(1-((7-(6-acetyl-1,6-diazaspiro[3.3]heptan-1-yl)-6-fluoro-4-methylphthalazin-1-yl)amino)ethyl)-2-methylbenzonitrile formic acid salt], the Ki in assay [1] came to 1.98 nM. Also, the IC50 in the assay on pERK in MKN1 cells (setting [2]) is 27.9 nM.

On to `COCCN1CC2(CCN2c2cc3c(N[C@H](C)c4cccc(C#N)c4C)nnc(C)c3cn2)C1` [Example P-217, (R)-3-(1-((7-(6-(2-methoxyethyl)-1,6-diazaspiro[3.3]heptan-1-yl)-4-methylpyrido[3,4-d]pyridazin-1-yl)amino)ethyl)-2-methylbenzonitrile formic acid salt], for which, in assay [1], the Ki was found to be 0.762 nM. For the same molecule, in the assay with pERK in MKN1 cells (setting [2]), the IC50 was found to be 43.1 nM.

With `COCCN1CC2(CCN2c2cc3c(N[C@H](C)c4cccc(C#N)c4C)nnc(C)c3cc2F)C1` [Example P-218, (R)-3-(1-((6-fluoro-7-(6-(2-methoxyethyl)-1,6-diazaspiro[3.3]heptan-1-yl)-4-methylphthalazin-1-yl)amino)ethyl)-2-methylbenzonitrile formic acid salt], the Ki in assay [1] was found to be 0.786 nM. Moreover, in the assay with pERK in MKN1 cells (setting [2]), the IC50 is 60.3 nM.

As to `Cc1c(C#N)cccc1[C@@H](C)Nc1nnc(C)c2cc(F)c(N3CCC34CN(CCO)C4)cc12` [Example P-219, (R)-3-(1-((6-fluoro-7-(6-(2-hydroxyethyl)-1,6-diazaspiro[3.3]heptan-1-yl)-4-methylphthalazin-1-yl)amino)ethyl)-2-methylbenzonitrile], in assay [1], the Ki turned out to be 0.665 nM. Also, the IC50 with pERK in MKN1 cells (setting [3]) came to 41.1 nM.

As for `Cc1c(C#N)cccc1[C@@H](C)Nc1nnc(C)c2cc(F)c(N3CCC34CN(CCC(=O)O)C4)cc12` [Example P-220, (R)-3-(1-(4-((1-(3-cyano-2-methylphenyl)ethyl)amino)-7-fluoro-1-methylphthalazin-6-yl)-1,6-diazaspiro[3.3]heptan-6-yl)propanoic acid], the Ki in assay [1] was 0.678 nM. In addition, in the assay with pERK in MKN1 cells (setting [3]), the IC50 is 4110 nM.
